According to patent US20250345309A1, “IMMUNE HEALTH IMPROVERS” (Amazentis SA, priority 2024, published 2025):

How the values were obtained:
[1] = human, in vivo
PBMCs [2] = assay: Mitochondrial analysis of PBMCs (Mitotracker Green, MitotrackerRedCMXROS, PGC-1α, Parkin); format: in vivo, human
Experimental: PBMCs were thawed as depicted above and cultured in T cell medium (RPMI (ThermoFisher Scientific) 10% FBS (South America origin), 10 mM Hepes (Sigma), 1× Non-Essential Amino Acid, 1 mM Sodium Pyruvate, 50 μM β-Mercaptoethanol, 100 U/ml penicillin, 100 μg/ml streptomycin and 2 mM Glutamax (ThermoFisher Scientific)) overnight. After washing, cells were reconstituted in T cell medium containing respective staining agent: for labelling of mitochondrial mass, Mitotracker Green (Invitrogen) was used at a concentration of 40 nM for 30 mins at 37° C. Mitochondrial membrane potential was assessed via MitotrackerRedCMXROS. Cells were then stained with a combination of CD3 vFlour 450, PE-Cy7 CD4, APC-Cy7 CD8, CCR7 APC, CD45RA FITC and Ghost Violet510. To assess expression of peroxisome proliferator-activated receptor gamma coactivator 1-alpha (PGC-1α), cells were rested for four hours after thawing, then stained with the panel above for 15 mins at 4° C. After washing in FACS buffer, cells were permeabilized and fixed using the eBioscience™ Foxp3/Transcription Factor Staining Buffer Set, followed by staining with PGC-1α (sc-518025; D-5; Santa Cruz) antibody. To assess the expression of Parkin, cells were first stained with CD4 BV786, CD8 PECF 594, CD3 BUV 395, CD45RA FITC, CD14 eF450 and live/dead 780, followed by permeabilization and fixation with transcription factor buffer set kit (BD Biosciences). For mitochondrial analysis, cells were finally fixed in 1% PFA and analyzed on a Cytek Aurora cytometer. Samples were unmixed using reference controls generated in combination with stained Ultracomp beads (Fisher Scientific, 01-2222-41).

TSCM = settings: in vitro (Denk et al. Immunity 2022); cited from earlier work
plasma cytokines = assay: Plasma cytokine measurements (LEGENDplex); format: in vivo, human; settings: d28 vs baseline, 1000 mg/day oral
Experimental: Inflammatory cytokines were measured using LEGENDplex™ HU Essential Immune Response Panel (BioLegend) according to the manufacturer's instructions. Plasma samples were diluted 1:1 in assay diluent as recommended and technical duplicates were used for both the standard curve and experimental samples. Analysis was performed with the provided software.

circulating immune cells = assay: Clinical hemocytometry of circulating immune cells; format: in vivo, human; settings: d28 vs baseline, 1000 mg/day oral
Experimental: During the baseline and follow-up visits, blood was drawn by a physician or physician's assistant to assess blood biochemistry parameters and haematology. Analysis was performed using clinically validated systems at the University Hospital Frankfurt, Germany. The aim of the present study was to globally assess the effect of UA on the immune system, in particular with respect to parameters of immune aging. We therefore performed clinical hemocytometry to first categorize circulating immune cells, comparing immune composition at baseline and upon the last study visit (FIG. 1A).

PBMCs [3] = assay: Single cell RNA sequencing of PBMCs; format: in vivo, human
PBMCs [4] = assay: SCENITH mitochondrial dependency analysis of immune populations; format: in vivo, human; settings: d28, 1000 mg/day oral
Experimental: Single cell energetic metabolism by profiling translation inhibition (SCENITH) was used to determine metabolic dependencies of select immune populations, which was performed as described previously (R. J. Argüello et al. Cell metabolism […], 32, 1063-1075). SCENITH reagents kit (inhibitors, puromycin and antibodies) were obtained from www.scenith.com/try-it and used according to the provided protocol. In short, 0.3×10^6 PBMCs were treated for 15 min with Control (DMSO), 2-Deoxy-Glucose (2-DG; 100 mM), Oligomycin (O; 1 μM) and the combination of 2DG and Oligomycin (DGO) or Harringtonine (H; 2 μg/mL). Following metabolic inhibitors, Puromycin (final concentration 10 μg/mL) was added to cultures for 30 min. After puromycin treatment, cells were washed in PBMC was buffer and stained with the following antibodies for 15 min at 4° C.: PE-Cy7 CD4, APC Cy7 CD8, CD45RA AF700, vFkour 450 CD3, CCR7 APC, BV786 CD14 PercP5.5 CD19, PE-CF594 CD16; CD56 BV711, BV510 Viability dye.
Cells were fixed and permeabilized using the Foxp3 intracellular staining kit (Invitrogen eBioscience) for 1 h. Intracellular staining of puromycin and protein targets was performed for 1 h in diluted (10×) permeabilization buffer at 4° C. Finally, data acquisition was performed using the Cytek Aurora flow cytometer. Samples were unmixed using reference controls generated in combination with stained Ultracomp beads (Fisher Scientific, 01-2222-41) using the SpectroFlo Software. The unmixed FCS files were used for data processing and analysis using FlowJo (BD, version 10.8.1). Immune cell populations of interest were gated manually for downstream analysis. gMFI expression values for Puromycin were exported from FlowJo to calculate metabolic dependencies. The following calculations were used:
To further characterize the metabolic profile of immune cells on a single-cell resolution, we employed SCENITH, a flow-cytometry based strategy that uses incorporation of Puromycin to infer metabolic dependencies (see Argüello et al., SCENITH: A flow cytometry-based method to functionally profile energy metabolism with single cell resolution, 2020, Cell Metabolism, 32, 1063-1075).

[5] = after 28 days, 1000 mg/day oral
[6] = after 28 days of UA compared to placebo

O=c1oc2cc(O)ccc2c2ccc(O)cc12 [Urolithin A]
Intensity of adverse events noted during the study [1]: all mild | Mitochondrial content in several CD8+ subsets (TN, TEM, TCM, TEFF) (PBMCs [2]; [5]): Increased | Mitochondrial content of CD4+ cells (PBMCs [2]; [5]): no significant change | Mitochondrial mass: proportion of MTGHi cells in CD8+ cells (PBMCs [2]; after 28 days, 1000 mg/day oral, absent in placebo): increased | PGC-1α expression in CD8+ cells (PBMCs [2]; after intervention period (d28), 1000 mg/day oral, no change with placebo): stronger expression | Mitochondrial membrane potential (MMP) in CD8+ cells (PBMCs [2]; d28, 1000 mg/day oral): significantly lower | PGC-1α in CD4+ cells (PBMCs [2]; d28, 1000 mg/day oral): no significant induction | Reduction of MMP in CD4+ cells (PBMCs [2]; d28, 1000 mg/day oral): absent | Reduction of MMP in CD8 subsets (PBMCs [2]; d28, 1000 mg/day oral): retained | Parkin protein expression (PBMCs [2]; study visits at seven days or 28 days, 1000 mg/day oral): Change in Parkin protein expression was detected | TSCM formation (TSCM): induces TSCM formation | Plasma IFN-γ level (plasma cytokines): significantly lower | Plasma IL-1β level (plasma cytokines): significantly lower | Plasma IL-2 level (plasma cytokines): significantly lower | Plasma IL-6 level (plasma cytokines): No difference | Plasma IL-8 level (plasma cytokines): No difference | Plasma IL-10 level (plasma cytokines): significantly lower | Plasma TNF-α level (plasma cytokines): significantly lower | Plasma interferon-gamma induced protein (IP-10) level (plasma cytokines): No difference | Plasma monocyte chemoattractant protein-1 (MCP-1) level (plasma cytokines): No difference | Monocytes (total count) (circulating immune cells): did not show marked alterations | Neutrophiles (total count) (circulating immune cells): did not show marked alterations | Total leukocytes (count) (circulating immune cells): did not show marked alterations | Circulating eosinophiles (total count) (circulating immune cells; not observed with placebo): significantly more | Circulating lymphocytes (total count) (circulating immune cells; not observed with placebo): significantly more | Activation markers CD69 and CXCR4 in NK cells (PBMCs [3]; after 28 days of UA): reduction | Electron transport chain components (MT-ND5, MT-CO1, MT-CO2) in naïve T cells (PBMCs [3]; after 28 days of UA): induced | Immediate-early genes (NR4A2, DUSP1, FOS, JUN, NFKBIA) in NK cells (PBMCs [3]; after 28 days of UA): reduction | Inflammatory gene signature (MX1, XAF1, ISG15, TNSF10) in B cells (PBMCs [3]; after 28 days of UA): downregulated | Interferon response pathway genes (IFITM2, IER2, STAT1) in monocytes (PBMCs [3]; after 28 days of UA): Strongest downregulation | Mitochondrial genes (MT-CYB, MT-ND5, MT-ATP8, MT-CO1) and NAMPT in monocytes (PBMCs [3]; after 28 days of UA): strong upregulation | Protein Kinase A (PKA) signaling and other immune inhibitory pathways, CD8+ T cells (PBMCs [3]; after 28 days of UA): strongly inhibited | T cell receptor (TCR) signaling, canonical pathway analysis, CD8+ T cells (PBMCs [3]; after 28 days of UA): activation | cAMP-responsive element modulator (CREM) in CD8+ TEM subset (PBMCs [3]; after 28 days of UA): downregulation | Differentially expressed genes in CD8+ T cells, down (PBMCs [3]; [6]): 37 genes | Differentially expressed genes in CD8+ T cells, up (PBMCs [3]; [6]): 52 genes | Genes associated with T cell exhaustion, suppression and hypofunction (NR4A2, CREM, TGFB1, METRNL) in CD8+ T cells (PBMCs [3]; [6]): downregulated | IL7R in CD8+ T cells (PBMCs [3]; [6]): induction | Wnt-associated stemness transcription factors TCF7 and LEF1 in CD8+ T cells (PBMCs [3]; [6]): upregulation | Differentially expressed genes in CD8+ T cells, total (PBMCs [3]; after 28 days of UA compared to placebo, five participants): 89 genes | Capacity to shift to OXPHOS when deprived of glycolysis (PBMCs [4]; CD8+ cells): stronger capacity | Dependence on glucose metabolism (PBMCs [4]; CD8+ cells): less dependence | Mitochondrial capacity in CD8+ subsets TN, TEM, TCM, TEEF (PBMCs [4]): potentiation | Mitochondrial capacity in total CD8+ cells (PBMCs [4]): potentiates
